According to ChEMBL document CHEMBL3046831, “Novel PCU cage diol peptides as potential targets against wild-type CSA HIV-1 protease: synthesis, biological screening and molecular modelling studies” (Med Chem Res, 2013):

What was measured:
Protease [1] = molecular target: T1, Protease (Human immunodeficiency virus 1, UniProt Q9YQ12); test: Inhibition of wild type C-South African Human immunodeficiency virus 1 protease using chromogenic peptide H-1048 as substrate by UV spectrophotometric analysis; design: species or system C-SA
Protease [2] = molecular target: T1, Protease; test: Inhibition of Human immunodeficiency virus 1 protease
Protease [3] = molecular target: T1, Protease; test: Inhibition of wild type C-South African Human immunodeficiency virus 1 protease; design: species or system C-SA

T1 sequence (Q9YQ12 whole entry): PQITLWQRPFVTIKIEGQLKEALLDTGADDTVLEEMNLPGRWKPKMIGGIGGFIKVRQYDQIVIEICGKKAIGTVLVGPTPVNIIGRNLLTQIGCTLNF

IC50 (Protease [1]) [µM]	SMILES	also measured
> 60	O=C(CC1(O)C2C3CC4C5C3C1C5C(O)(CC(=O)N[C@@H](Cc1c[nH]cn1)C(=O)O)C42)N[C@@H](Cc1c[nH]cn1)C(=O)O (some centres not stated)	–
–	Nc1cccc(CN2C(=O)N(Cc3cccc(N)c3)[C@H](Cc3ccccc3)[C@H](O)[C@@H](O)[C@H]2Cc2ccccc2)c1 [MOZENAVIR]	Ki (Protease [2]): 0.0003 µM
–	CC[C@H](C)[C@H](NC(=O)[C@H](C)NC(=O)[C@H](CCC(=O)O)NC12NC(=O)C3(O)C4C5CC(C6C5C3C61)C42)C(=O)N[C@@H](CO)C(=O)O (some centres not stated)	IC50 (Protease [3]): 0.078 µM
> 60	NC(=O)[C@@H]1CCCN1C(=O)CC1(O)C2C3CC4C5C3C1C5C(O)(CC(=O)N1CCC[C@H]1C(N)=O)C42 (some centres not stated)	–
5	O=C(CC1(O)C2C3CC4C5C3C1C5C(O)(CC(=O)N[C@@H](Cc1c[nH]c3ccccc13)C(=O)O)C42)N[C@@H](Cc1c[nH]c2ccccc12)C(=O)O (some centres not stated)	–
> 60	O=C(O)CN(Cc1ccccc1)C(=O)CC1(O)C2C3CC4C5C3C1C5C(O)(CC(=O)N(CC(=O)O)Cc1ccccc1)C42 (configuration not stated)	–
10	O=C(CC1(O)C2C3CC4C5C3C1C5C(O)(CC(=O)N[C@@H](Cc1ccc(O)cc1)C(=O)O)C42)N[C@@H](Cc1ccc(O)cc1)C(=O)O (some centres not stated)	–
> 60	O=C(CC1(O)C2C3CC4C5C3C1C5C(O)(CC(=O)N[C@@H](Cc1ccccc1)C(=O)O)C42)N[C@@H](Cc1ccccc1)C(=O)O (some centres not stated)	–
10	CC(C)[C@H](NC(=O)CC1(O)C2C3CC4C5C3C1C5C(O)(CC(=O)N[C@H](C(=O)O)C(C)C)C42)C(=O)O (some centres not stated)	–
5	O=C(CC1(O)C2C3CC4C5C3C1C5C(O)(CC(=O)N[C@H](C(=O)O)c1ccccc1)C42)N[C@H](C(=O)O)c1ccccc1 (some centres not stated)	–
> 60	O=C(O)[C@@H]1CCCN1C(=O)CC1(O)C2C3CC4C5C3C1C5C(O)(CC(=O)N1CCC[C@H]1C(=O)O)C42 (some centres not stated)	–
–	CC(C)[C@H](NC12OC3(O)C4C5CC(C6C5C3C61)C42)C(=O)N[C@@H](C)C(=O)O (some centres not stated)	IC50 (Protease [3]): 0.6 µM
